In paper PMC9150179, “Clerodane Diterpenes from Casearia corymbosa as Allosteric GABAA Receptor Modulators” (Journal of Natural Products, 2022):

Experiments:
[1] = biological target: GABAA receptor with the α1β2γ2 subunit composition (Homo sapiens, UniProt P14867+P18507+P47870); assay: FLIPR assay on CHO cells stably expressing GABAA receptors; format: cell-based; conditions: for % activation at single concentration: 20 μM compound, 200 μM GABA = 100%
Experimental: Chinese hamster ovary (CHO) cells stably expressing the GABAA receptor with the α1β2γ2 subunit composition were passaged following an established protocol.[15],[16] The Chinese hamster ovary (CHO) cell line stably expressing the α1β2γ2 GABAA receptor subtype was cloned by B’SYS. Cells were cultured in a DMEM F-12 nutrient mixture supplemented with 10% FBS and 1% penicillin/streptomycin, under antibiotic pressure with 200 μg/mL of hygromycin B, 5 μg/mL of puromycin, and 100 μg/mL of zeocin. Cells were incubated in humidified air at 37 °C and 5% CO2, until 80–90% cell confluency. The passage numbers used in this study were from 10 to 30. Briefly, cells of ca. 80–90% confluency were seeded in a 96-well black-walled plate at a density of 60 000 cells/well in 100 μL of culture medium. The plate was incubated in humidified air at 37 °C and 5% CO2 for 24 h to allow cells to adhere. Then, 100 μL of FLIPR red dye solution (10.4 mL of assay buffer and one vial of red FLIPR assay reagent) was added to each well. The plate was further incubated for 30 min to allow the dye to penetrate into the cell membrane (assay plate). During the incubation time, a compound plate (clear 96-well plate) with controls, extracts, microfractions, compounds, and blanks was prepared (200 μL/well). Test solutions of extracts, microfractions, and compounds were prepared in buffer (consisting of 10% HBSS and 2% HEPES in sterilized H2O) and DMSO.
For the extract library screening, 2 μL of a 10 mg/mL DMSO stock solution of the extracts was added to 198 μL of buffer and transferred into the compound plate. The final test concentration for extracts was 20 μg/mL, with a final DMSO concentration in the assay of 0.1%. For extracts tested, active (>35% potentiation) serial dilutions were prepared from the stock solution to obtain final test concentrations of 0.16, 0.31, 0.63, 1.25, 2.50, 5.00, 10.00, and 20.00 μg/mL.
To test the pure compounds, stock solutions of 20 mM in DMSO were prepared. Compounds were assayed at a final concentration range of 0.16 to 20.00 μM (8× dilution series) or alternatively from 0.01 to 20.00 μM (12× dilution series). Aliquots of 200 μL from each dilution were transferred into wells of the compound plate and tested.
A series of controls was included in each assay. GABA at 200 μM was used to represent 100% activation of the receptor, while GABA at 2 μM represented the minimum activation (EC10). The positive control was diazepam at 20 μM in the presence of GABA at 2 μM, and buffer with 0.1% DMSO was used as a blank. GABA solutions (2 and 200 μM) were prepared from a 100 mM stock solution. In order to achieve a final test concentration of 20 μM diazepam in the assay plate, a 100 μM working solution was prepared from a stock solution (1 mg/mL in MeOH).
All test solutions were placed in the appropriate position in the compound plate (200 μL). Right after the final incubation period of the assay plate, the compound and assay plates were placed into a FlexStation 3 (Molecular Devices). The FlexStation parameters used in this study were as previously published.[14] Fluorescence was recorded for 500 s. For the first 25 s, the background fluorescence of the assay plate was measured (background signal). At 25 s, 50 μL of the test solutions (dilutions from compounds, extracts, microfractions, diazepam, and blanks) was transferred from the compound plate into the assay plate. The fluorescence was then recorded until 295 s. At 295 s, 25 μL of the GABA solutions (final concentration of 2 or 200 μM) was transferred into each well of the assay plate, and fluorescence was recorded until 500 s. The change in fluorescence intensity measured between 270 and 330 s was used for the calculation of percentage activation.

GABAA receptors α1β2γ2S = biological target: T1, GABAA receptors α1β2γ2S (Homo sapiens, UniProt P14867+P18507+P47870); assay: Two-microelectrode voltage clamp assay with Xenopus laevis oocytes (α1β2γ2S); format: cell-based
T1 construct: expressed in transfected cells; host or cells: Xenopus laevis oocytes, cRNA injection
T1 sequence (P18507 40-467 isoform P18507-1 limits assumed, one chain of several): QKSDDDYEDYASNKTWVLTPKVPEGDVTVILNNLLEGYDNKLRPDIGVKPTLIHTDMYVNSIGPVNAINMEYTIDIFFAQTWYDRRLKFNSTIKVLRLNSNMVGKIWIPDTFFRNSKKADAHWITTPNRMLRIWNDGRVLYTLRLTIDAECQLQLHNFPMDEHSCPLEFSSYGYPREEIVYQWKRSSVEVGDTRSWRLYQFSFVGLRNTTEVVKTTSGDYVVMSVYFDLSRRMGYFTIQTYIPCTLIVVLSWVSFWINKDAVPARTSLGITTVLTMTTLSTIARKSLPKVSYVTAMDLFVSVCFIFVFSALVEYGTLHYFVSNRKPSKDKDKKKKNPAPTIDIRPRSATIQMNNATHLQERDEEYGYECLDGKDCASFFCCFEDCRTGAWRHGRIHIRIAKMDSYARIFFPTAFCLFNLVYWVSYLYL
Experimental: (§1) Recombinant GABAA receptors (α1β2γ2s and α1β2) were expressed in X. laevis oocytes by cRNA injection, as previously described.[37] Two-microelectrode voltage clamp measurements were performed between days 1 and 5 after injection of cRNA of the respective subunits, using a TURBO TEC 03X amplifier (npi Electronic) at a holding potential of −70 mV and pCLAMP 10 data acquisition software (Molecular Devices). The bath solution contained 90 mM NaCl, 1 mM KCl, 1 mM MgCl2, 1 mM CaCl2, and 5 mM HEPES (pH 7.4), and the electrode filling solution contained 2 M KCl. Test solutions (100 μL) were applied to the oocytes at a speed of 300 μL/sec by means of the ScreeningTool (npi electronic) automated fast perfusion system. GABA EC3–7 was determined through a concentration–response experiment with GABA. A stock solution of compound 8 (100 mM) in DMSO was diluted with a bath solution containing GABA EC3–7 to obtain appropriate working solutions according to a validated protocol. Enhancement of the IGABA was defined as (I(GABA+Comp)/IGABA) – 1, where I(GABA+Comp) is the current response in the presence of a given compound, and IGABA is the control of the GABA-induced chloride current. Emax reflects the maximal IGABA enhancement. Concentration–response curves were generated, and the data were fitted by nonlinear regression analysis using Origin Software (OriginLab Corporation, USA) and are given as the means ± SEM of at least three oocytes from ≥2 batches. Diazepam (Sigma) and flumazenil (Sigma-Aldrich) were used as positive controls at 2 μM.

GABAA receptors α1β2 = biological target: T2, GABAA receptors α1β2 (Homo sapiens, UniProt P14867+P47870); assay: Two-microelectrode voltage clamp assay with Xenopus laevis oocytes (α1β2); format: cell-based; conditions: α1β2, in the presence of GABA EC3–7, n = 3
T2 construct: expressed in transfected cells; host or cells: Xenopus laevis oocytes, cRNA injection
T2 sequence (P14867 28-456): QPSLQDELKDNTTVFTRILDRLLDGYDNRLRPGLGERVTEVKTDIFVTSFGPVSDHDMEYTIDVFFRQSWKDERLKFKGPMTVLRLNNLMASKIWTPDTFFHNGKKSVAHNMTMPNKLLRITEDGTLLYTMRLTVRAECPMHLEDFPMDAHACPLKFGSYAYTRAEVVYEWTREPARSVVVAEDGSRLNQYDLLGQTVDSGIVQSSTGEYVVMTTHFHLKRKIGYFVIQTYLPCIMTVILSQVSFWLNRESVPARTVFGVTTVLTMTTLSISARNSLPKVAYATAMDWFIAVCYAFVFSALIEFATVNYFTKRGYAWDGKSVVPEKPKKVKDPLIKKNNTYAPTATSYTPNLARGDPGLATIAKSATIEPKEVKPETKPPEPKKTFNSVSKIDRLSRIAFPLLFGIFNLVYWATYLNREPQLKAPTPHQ
T2 sequence (P47870 25-512 limits assumed): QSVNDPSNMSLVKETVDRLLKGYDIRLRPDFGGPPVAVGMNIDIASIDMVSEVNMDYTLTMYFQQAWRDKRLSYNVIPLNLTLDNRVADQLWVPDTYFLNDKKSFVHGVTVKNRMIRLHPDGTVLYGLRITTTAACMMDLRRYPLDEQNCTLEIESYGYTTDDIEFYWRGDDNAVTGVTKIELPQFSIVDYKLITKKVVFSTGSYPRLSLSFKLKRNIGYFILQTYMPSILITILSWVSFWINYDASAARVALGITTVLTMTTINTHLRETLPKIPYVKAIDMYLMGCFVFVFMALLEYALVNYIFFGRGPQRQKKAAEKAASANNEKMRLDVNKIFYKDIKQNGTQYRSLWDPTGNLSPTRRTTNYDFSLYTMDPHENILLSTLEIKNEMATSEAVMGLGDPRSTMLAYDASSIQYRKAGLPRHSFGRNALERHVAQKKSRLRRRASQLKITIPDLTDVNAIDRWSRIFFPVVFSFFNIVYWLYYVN
Experimental: as §1, with “Concentration–response curves were generated, and the data were fitted by nonlinear regression analysis using Origin Software (OriginLab Corporation, USA) and are given as the means ± SEM of at least three oocytes from ≥2 batches. Diazepam (Sigma) and flumazenil (Sigma-Aldrich) were used as positive controls at 2 μM.” left out

GABAA receptors = test system: GABAA receptors; parameters: method as in PMID 17585957; conditions: Xenopus oocyte assay; cited from earlier work

Chain of GABAA receptor with the α1β2γ2 subunit composition (P18507 40-475, one chain of several): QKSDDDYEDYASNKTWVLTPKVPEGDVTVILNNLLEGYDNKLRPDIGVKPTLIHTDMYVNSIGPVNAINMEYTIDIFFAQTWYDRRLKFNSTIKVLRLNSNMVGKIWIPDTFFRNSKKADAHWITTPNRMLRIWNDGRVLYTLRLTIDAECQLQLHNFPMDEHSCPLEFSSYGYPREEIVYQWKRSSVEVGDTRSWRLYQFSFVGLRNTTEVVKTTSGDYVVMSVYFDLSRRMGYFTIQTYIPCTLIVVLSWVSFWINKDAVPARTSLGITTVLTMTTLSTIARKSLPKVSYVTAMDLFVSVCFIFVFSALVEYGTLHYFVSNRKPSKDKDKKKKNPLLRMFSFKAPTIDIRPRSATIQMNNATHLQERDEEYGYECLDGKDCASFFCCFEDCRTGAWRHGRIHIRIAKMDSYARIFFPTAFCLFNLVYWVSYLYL

## C=C/C(C)=C/C[C@]1(C)[C@H](C)C[C@H](O)[C@@]2(C=O)C(C=O)=C[C@@H](OC(C)=O)C[C@@H]12 [Compound 1, (5S,8R,9R,10S)-2S-Acetoxy-6S-hydroxyclerod-3,12,14-trien-18,19-dial]
[1]; in the presence of 2 μM GABA
  % activation at single concentration: ~40%

## C=C/C(C)=C/C[C@]1(C)[C@H](C)C[C@H](O)[C@]23C(=C[C@@H](OC(C)=O)C[C@@H]12)[C@@H](OC)O[C@H]3OC(C)=O [Compound 2, Graveospene H]
[1]; in the presence of 2 μM GABA
  % activation at single concentration: no discernible activity

## C=C/C(C)=C/C[C@]1(C)[C@H](C)C[C@H](O)[C@]23C(=C[C@@H](OC(C)=O)C[C@@H]12)[C@@H](OC(C)=O)O[C@H]3OC(C)=O [Compound 3, Corymbotin D]
[1]; in the presence of 2 μM GABA
  % activation at single concentration: significantly enhanced

## C=C/C(C)=C/C[C@]1(C)[C@H](C)C[C@H](O)[C@]23C(=C[C@H](OC(=O)C(=C)C)C[C@@H]12)[C@@H](OC(C)=O)O[C@H]3OC(C)=O [Compound 4, Corymbotin F]
[1]; in the presence of 2 μM GABA
  % activation at single concentration: no discernible activity

## C=C/C(C)=C/C[C@]1(C)[C@H](C)C[C@H](OC)[C@@]2(C=O)C(C=O)=C[C@@H](OC(C)=O)C[C@@H]12 [Compound 5, (5S,8R,9R,10S)-2S-Acetoxy-6S-methoxyclerod-3,12,14-trien-18,19-dial]
[1]; in the presence of 2 μM GABA
  % activation at single concentration: ~40%

## C=C/C(C)=C/C[C@]1(C)[C@H](C)C[C@H](O)[C@]23C(=C[C@H](OC(=O)C(=C)C)C[C@@H]12)[C@@H](OC)O[C@H]3OC(C)=O [Compound 6, (2R)-2-Methylpropenoyloxy-6S-hydroxy-18S-methoxy-19S-acetoxyzuelanin]
[1]; in the presence of 2 μM GABA
  % activation at single concentration: no discernible activity

## C=C/C(C)=C/CC1(C)C(C)CC(OC(C)=O)C23C(=CC(OC(C)=O)CC12)C(OC(C)=O)OC3OC(C)=O [Compound 7, (2S,6S,18S,19S)-Tetraacetoxyzuelanin]
[1]; in the presence of 2 μM GABA
  % activation at single concentration: significantly enhanced
[1]; in the presence of 2 μM GABA, CHO cells α1β2γ2, read-out: EC50, positive allosteric modulation of the GABA signal
  EC50: 4.6 µM

## C=C/C(C)=C/C[C@]1(C)[C@H](C)C[C@H](OC)[C@]23C(=C[C@@H](OC(C)=O)C[C@@H]12)[C@@H](OC(C)=O)O[C@H]3OC(C)=O [Compound 8, Corimbotin A]
GABAA receptors α1β2γ2S; 8 (50 μM), flumazenil (2 μM)
  IGABA stimulation by 8 in the presence of flumazenil: not prevented
GABAA receptors α1β2γ2S; α1β2γ2S, in the presence of GABA EC3–7, n = 3, read-out: EC50, potentiation of GABA-induced chloride currents (IGABA)
  EC50: 43.6 µM
GABAA receptors α1β2γ2S; α1β2γ2S, in the presence of GABA EC3–7, n = 3, read-out: Emax, maximal IGABA enhancement
  Emax: 809%
GABAA receptors α1β2; read-out: EC50, potentiation of GABA-induced chloride currents (IGABA)
  EC50: 57.6 µM
GABAA receptors α1β2; read-out: Emax, maximal IGABA enhancement
  Emax: 534%
[1]; in the presence of 2 μM GABA
  % activation at single concentration: significantly enhanced
[1]; 8 (5 μM) with flumazenil 0.001–10 μM, 2 μM GABA
  activation by 8 in the presence of flumazenil: not abrogated
[1]; 8 (0.5–4.0 μM) with allopregnanolone (0.25 μM), 2 μM GABA
  combination with allopregnanolone: additive effects
[1]; 8 (0.5–8 μM) with diazepam (2 μM), 2 μM GABA
  combination with diazepam: additive effect
[1]; etazolate (2 μM) with 8 (0.5–8 μM), 2 μM GABA
  potentiation of the GABA signal by etazolate in combination with 8: further increased

## C=C/C(C)=C/C[C@]1(C)[C@H](C)C[C@H](OC)[C@]23C(=C[C@H](OC(=O)CC)C[C@@H]12)[C@@H](OC(C)=O)O[C@H]3OC(C)=O [Compound 9, (2R)-Propanoyloxy-(6R)-methoxy-18R,19S-diacetoxyzuelanin]
[1]; in the presence of 2 μM GABA
  % activation at single concentration: no discernible activity

## CN1C(=O)CN=C(c2ccccc2)c2cc(Cl)ccc21 [diazepam]
GABAA receptors
  maximal potentiation (Emax): ~200%

## CCO [ethanol, reference compound]
[1]; concentrations up to 640 mM, in presence of 2 μM GABA
  activation of the GABA signal: no activation

## CCOC(=O)c1ncn2c1CN(C)C(=O)c1cc(F)ccc1-2 [flumazenil, reference compound]
[1]; diazepam 2 μM, flumazenil 0.001–100 μM, concentration-dependent
  effect on potentiation of the GABA signal by diazepam: abolished

## pregnenolone sulfate [PREGS, reference compound]
[1]; 8 (10 μM) with PREGS 10 μM, 2 μM GABA
  effect of PREGS on GABA signal with 8, highest concentration: decrease of the GABA signal
[1]; 8 (10 μM) with PREGS at lower concentrations (<10 μM), 2 μM GABA
  effect of PREGS on GABA signal with 8, lower concentrations: no effect
[1]; allopregnanolone 0.5 μM, PREGS 0.001–100 μM
  effect on activation by allopregnanolone: abrogated
